Measurements published in patent US9023853B2, “Janus kinase 2 (JAK2) inhibitor for the treatment of lupus” (Cephalon, Inc., priority 2010, dated 2015).

Key:
Assay type in all cases: in vivo, mouse
CD38 = CD38 expression by flow cytometry in NZM mice
Experimental: Antibodies used for flow cytometry consisted of anti-mouse CD138-APC (eBioscience, San Diego, Calif.), anti-mouse CD19-FITC (eBioscience, San Diego, Calif.), anti-mouse CD38-PE (eBioscience, San Diego, Calif.) and anti-mouse CD45R/B220-Cyc (eBioscience, San Diego, Calif.), Rat IgG1-APC isotype control (eBioscience, San Diego, Calif.), Rat IgG2a-PE isotype control (eBioscience, San Diego, Calif.). All samples were analyzed using an Accuri C6 Flow Cytometer. Complete media was used for all experiments involving the ex vivo culture of splenocytes for all Elispot experiments. […]
(§1) Age mated, female, NZM or NZW/LacJ, mice were matured for the study of lupus nephritis for a total of 7 months or 210 days at which time urine was collected for proteinuria detection. Mice with 0.5-1.0 mg/ml of urine protein as determined by an optical density-based total protein precipitation assay and cross-checked for 30-300 mg/dl of protein as determined by a stick assay were considered proteinuria positive and selected for study entry. […] End-stage lupus nephritis was evaluated by histopathology and scored by a board certified pathologist for the assessment of total renal damage in diseased animals using the scoring method described by Smith et al (Smith, Dong et al. 2007). […]

IL-17A = assay: Serum IL-17A in NZM mice
Experimental: (§2) For the processing of serum samples for cytokine analysis, frozen plasma at −80° C. was thawed on ice, vortexed, and centrifuged for 10 minutes to remove debris and aggregates. A total of 25-50 μL of serum was used for Luminex® assays following the manufacturer's instructions. Ten different mouse cytokines were measured using the mouse cytokine 10-plex bead kit (Invitrogen, Carlsbad, Calif., no. LMC0001). Briefly, filter plates (Millipore, Billerica, Mass., no. MAIPSWU10), were pre-wet with 200 μL of wash solution (kit component) and 25 μL of beads were added per well. […]
as §1

plasma cells = assay: Spleen plasma cells by flow cytometry in MRL/lpr mice; conditions: 100 mg/kg, p<0.01
Experimental: Antibodies used for flow cytometry consisted of anti-mouse CD138-APC (eBioscience, San Diego, Calif.), anti-mouse CD19-FITC (eBioscience, San Diego, Calif.), anti-mouse CD38-PE (eBioscience, San Diego, Calif.) and anti-mouse CD45R/B220-Cyc (eBioscience, San Diego, Calif.), Rat IgG1-APC isotype control (eBioscience, San Diego, Calif.), Rat IgG2a-PE isotype control (eBioscience, San Diego, Calif.). All samples were analyzed using an Accuri C6 Flow Cytometer. Complete media was used for all experiments involving the ex vivo culture of splenocytes for all Elispot experiments. Complete media consisted of RPMI1640 (Cellgro, Manassas, Va.), plus 1% Pen-Strep (Cellgro, Manassas, Va.), 1% L-Gln (Cellgro, Manassas, Va.), 1% NEAA (Cellgro, Manassas, Va.), β-ME (Cellgro, Manassas, Va.), plus 10% FBS (Cellgro, Manassas, Va.).
Washed, RBC-lysed splenocytes were stained for plasma cell markers as previously used in published reports (Neubert, Meister et al. 2008). As used herein the term “plasma cell” will refer to the following immunophenotype definition: Plasma cells were defined as live CD19-negative, CD45R/B220-negative, CD138-positive, CD38-positive events for the MRL/lpr model. A total of 200,000-500,000 events were collected per tube/sample. Insufficient sample limited plasma cell determination in bone marrow. […]

NZM mice = assay: Splenomegaly (EOS spleen mass) in NZM mice
Experimental: Age mated, female, NZM or NZW/LacJ, mice were matured for the study of lupus nephritis for a total of 7 months or 210 days at which time urine was collected for proteinuria detection. Mice with 0.5-1.0 mg/ml of urine protein as determined by an optical density-based total protein precipitation assay and cross-checked for 30-300 mg/dl of protein as determined by a stick assay were considered proteinuria positive and selected for study entry. Groups were normalized to contain a Gaussian distribution of proteinuria positive animals (i.e., ⅓ low proteinuria, ⅓ medium, ⅓ high) then randomized between groups before ear marking and taking baseline measures including urine and serum collections. A total of five mice from the total population were randomly selected for baseline kidney histology evaluation. Treatments and tests for each group are as described in FIG. 12. Briefly, with a minimum of 10 mice per group, COMPOUND A was administered at 100 mg/kg or 55 mg/kg, both twice a day and orally. […] Vehicle included 3% DMSO, 10% Solutol and 87% PBS. […] End-stage lupus nephritis was evaluated by histopathology and scored by a board certified pathologist for the assessment of total renal damage in diseased animals using the scoring method described by Smith et al (Smith, Dong et al. 2007). […] Day-98 or “end of treatment/study” represents 310 days of age for the NZM animals.

CCL3/MIP-1α = assay: Serum CCL3/MIP-1α in NZM mice
Experimental: as §2, §1

IL-4 = assay: Serum IL-4 in NZM mice
Experimental: as §2, §1

CN1CCN(c2cccc(Nc3nc4c(-c5ccc(S(C)(=O)=O)cc5)cccn4n3)c2)CC1 [COMPOUND A, [8-(4-methanesulfonyl-phenyl)-[1,2,4]triazolo[1,5-a]pyridin-2-yl]-[3-(4-methyl-piperazin-1-yl)-phenyl]-amine]
decrease in expression of CD38 (CD38; COMPOUND A 55 mg/kg): 66.6%
decrease in expression of CD38 (CD38; COMPOUND A 100 mg/kg): 74.2%
serum IL-17A decrease compared to vehicle (IL-17A; 55 mg/kg): 79.1%
serum IL-17A decrease compared to vehicle (IL-17A; 100 mg/kg): 86.2%
spleen plasma cells decrease vs vehicle (plasma cells): 65.5%
total EOS spleen mass decrease compared to vehicle (NZM mice; 55 mg/kg): 71.8%
total EOS spleen mass decrease compared to vehicle (NZM mice; 100 mg/kg): 73.5%
serum CCL3/MIP-1α decrease compared to vehicle (CCL3/MIP-1α; 55 mg/kg): 94.5%
serum CCL3/MIP-1α decrease compared to vehicle (CCL3/MIP-1α; 100 mg/kg): 94.5%
serum IL-4 decrease compared to vehicle (IL-4; 55 mg/kg): 98.7%
serum IL-4 decrease compared to vehicle (IL-4; 100 mg/kg): 91.8%
